Measurements: patent publication US9675074B2, “Methods to reduce cold damage in cereals” (Valent BioSciences Corporation, priority 2014, dated 2017)

Legend:
[1] = test system: Corn; assay: Greenhouse corn, foliar GA3 before a simulated freeze event (−2° C. for 8 hours), evaluated 8 days after freezing; type: in vivo
Method: Corn seeds were planted in 18 cell flats filled with Sunshine 900 mix. Osmocote Plus (cal mag) 16-8-12 and Gypsum ([…]) were added (standard medium). The plants were watered and fertilized with 100 ppm of a commercially available 15-5-15 mixture plus 100 ppm calcium and 100 ppm magnesium, pH 6.5, as necessary and grown in the greenhouse. After the corn grew for 7 days, the plants received a foliar application of 1.8 ml of 120 mg/liter GA3 plus 0.05% non-ionic surfactant per plant. Sixteen hours later, the GA3-treated and untreated control plants were moved to a cold room with temperature at −2° C. for 8 hours to simulate a freeze event. Plants were then moved to the greenhouse (25° C.). The plant height, number of injured leaves, and damaged leaf area were evaluated at 8 days after freezing.

[2] = test system: Corn; assay: Corn growth at 8° C. for 7 d after foliar GA3 application at V2; type: in vivo; conditions: 120 mg/liter (0.2 mg/plant: 6.9 grams of GA3/acre)
Method: Corn seeds were planted in 2 quart pots filled with standard medium and grown in the greenhouse. After the corn grew for 10 days at 24° C., it was at the V2 growth stage. The 10d post-sowing plants received a foliar application of 1.8 ml of 120 mg/liter GA3 plus 0.05% of a non-ionic surfactant. Immediately after spraying, both the GA3-treated and untreated control plants were moved to a growth chamber set at 8° C. with a 12:12 photoperiod. The height of the plants was measured one week after treatment.

[3] = 120 mg/liter GA3, 1.8 ml per plant, 16 h before −2° C. for 8 h, 8 days after freezing
[4] = pre-frost GA3 treatment, 120 mg/liter

**Q.** For `C=C1C[C@]23C[C@@]1(O)CC[C@H]2[C@@]12C=C[C@H](O)[C@@](C)(C(=O)O1)[C@H]2[C@@H]3C(=O)O` [GA3, gibberellic acid], which Damaged leaf area [1, 3] is on record?
**A.** 12.4%

**Q.** What about the “Number of injured leaf” value [1, 3] of the same molecule?
**A.** 2.6

**Q.** And the Plant height [1, 3]?
**A.** 59.7 cm

**Q.** And the “Effect on number of injured leaves or damaged leaf area” value [1, 4]?
**A.** did not reduce the number of injured leaves or damaged leaf area

**Q.** And the “Recovery from frost damage” value [1, 4]?
**A.** did help the corn recover from the frost damage

**Q.** What about the Growth rate ([2]; 7 d at 8° C.) of the same molecule?
**A.** 0.58 cm/day

**Q.** And the “Height at 7 d” value ([2]; 7 d at 8° C., 12:12 photoperiod)?
**A.** 28.0 cm

**Q.** And the “Height at Application” value ([2]; baseline at application, V2)?
**A.** 23.9 cm
